Results as given in patent publication US8263610B2, “Substituted imidazolyl-5,6-dihydrobenzo[N]isoquinoline compounds” (ArQule, Inc., priority 2008, dated 2012).

Assays:
Experiment in all cases: MTS assay, inhibition of cell growth
Format in all cases: cell-based
PACA-2 cells = conditions: compound at 10 μM, 72 hours
Procedure: (§1) MDA-MB-231, DLD-1, Kato III NCI-H1299, PACA-2 cells, were maintained at 37° C., 5% CO2 in DMEM media supplemented with 10% fetal bovine serum, penicillin/streptomycin and fungizone (Invitrogen). Cells were seeded into 96-well tissue culture plates at 3000 per well and cultured at 37° C. for 18 hours. Test compounds were dissolved and diluted to 300× in DMSO then further diluted 1:40 in DMEM before addition to cells (1:7.5 dilution). Cells were incubated with test compounds for 72 hours followed by incubation with tetrazolium compound (3-(4,5-dimethylthiazol-2-yl)-5-(3-carboxymethoxyphenyl)-2-(4-sulfophenyl)-2H-tetrazolium, inner salt; MTS) and the electron coupling reagent, phenazine methosulfate (PMS) for 4 hours. […] The ability of compounds to inhibit cell growth in this assay is correlated with the reduction of dehydrogenase enzyme activity found in metabolically active cells. The measurement of the absorbance of the formazan was assessed using an ENVISION™ (Perkin Elmer) microplate reader at 492 nm.

NCI-H1299 cells = conditions: Homo sapiens, compound at 10 μM, 72 hours
Procedure: as §1

Kato III cells = conditions: Homo sapiens, compound at 10 μM, 72 hours
Procedure: as §1

MDA-MB-231 cells = conditions: Homo sapiens, compound at 10 μM, 72 hours
Procedure: as §1

DLD-1 cells = conditions: Homo sapiens, compound at 10 μM, 72 hours
Procedure: as §1

Compound	inhibition at 10 µM (PACA-2 cells) [%]	inhibition at 10 µM (NCI-H1299 cells) [%]	inhibition at 10 µM (Kato III cells) [%]	inhibition at 10 µM (MDA-MB-231 cells) [%]	inhibition at 10 µM (DLD-1 cells) [%]
CC(C)(C)OC(=O)N1CCc2c(cnc3[nH]nc(Br)c23)C1 [drawing 588, tert-butyl 1-bromo-3,6,8,9-tetrahydro-7H-pyrazolo[3,4-c][2,7]naphthyridine--7-carboxylate]	75 to 100	75 to 100	75 to 100	75 to 100	75 to 100
CS(=O)(=O)N1CCc2c(cnc3[nH]ncc23)C1 [7-(methylsulfonyl)-6,7,8,9-tetrahydro-3H-pyrazolo[3,4-c][2,7]naphthyridine]	75 to 100	75 to 100	75 to 100	75 to 100	75 to 100
CN(C)CCNC(C(=O)N1CCc2c(cnc3[nH]nc(-c4ccccc4)c23)C1)c1ccccc1 (centres unmarked) [N,N-dimethyl-N′-[2-oxo-1-phenyl-2-(1-phenyl-3,6,8,9-tetrahydro-7H-pyrazolo[3,4-c][2,7]napthyridin-7-yl)ethyl]ethane-1,2-diamine]	75 to 100	75 to 100	75 to 100	75 to 100	75 to 100
O=C(Nc1cccc(Oc2ccccc2)c1)N1CCc2c(cnc3[nH]nc(Br)c23)C1 [1-bromo-N-(3-phenoxyphenyl)-3,6,8,9-tetrahydro-7H-pyrazolo[3,4-c][2,7]naphthyridine-7-carboxamide]	50 to 74	50 to 74	75 to 100	25 to 49	75 to 100
Nc1nc(N)nc(N2CCc3c(cnc4[nH]ncc34)C2)n1 [6-(3,6,8,9-tetrahydro-7H-pyrazolo[3,4-c][2,7]naphthyridin-7-yl)-1,3,5-triazine-2,4-diamine]	75 to 100	75 to 100	75 to 100	75 to 100	75 to 100
O=C(c1ccccc1)c1c[nH]c2ncnc(N3CCc4c(cnc5[nH]nc(Br)c45)C3)c12 [drawing 582]	75 to 100	75 to 100	75 to 100	50 to 74	50 to 74
O=S(=O)(Cc1noc2ccccc12)NC1CCc2c(cnc3[nH]ncc23)C1 (centres unmarked) [1-(1,2-benzisoxazol-3-yl)-N-(6,7,8,9-tetrahydro-3H-pyrazolo[3,4-c]isoquinolin-7-yl)methanesulfonamide]	75 to 100	25 to 49	75 to 100	25 to 49	50 to 74
COc1ccc(S(=O)(=O)N2CCc3c(cnc4[nH]ncc34)C2)cc1OC [7-[(3,4-dimethoxyphenyl)sulfonyl]-6,7,8,9-tetrahydro-3H-pyrazolo[3,4-c][2,7]napthyridine]	75 to 100	75 to 100	75 to 100	75 to 100	75 to 100
O=C(NCCc1ccccc1)NC1CCc2c(cnc3[nH]ncc23)C1 (centres unmarked) [1-(2-phenylethyl)-3-(6,7,8,9-tetrahydro-3H-pyrazolo[3,4-c]isoquinolin-7-yl)urea]	75 to 100	75 to 100	75 to 100	75 to 100	75 to 100
COc1ccc(Cn2ncc3c4c(cnc32)CCc2[nH]c(=O)ccc2-4)cc1 [3-(4-methoxybenzyl)-3,6,7,8-tetrahydro-9H-pyrazolo[4,3-a][3,7]phenanthrolin-9-one]	75 to 100	75 to 100	75 to 100	75 to 100	75 to 100
CNc1ncc2c(n1)CCc1cnc3c(cnn3Cc3ccc(OC)cc3)c1-2 [3-(4-methoxybenzyl)-N-methyl-6,7-dihydro-3H-pyrazolo[4′,3′:5,6]pyrido[4,3-f]quinazolin-9-amine]	75 to 100	< 24	75 to 100	75 to 100	75 to 100
O=C(Nc1cccc(Cl)c1F)NC1CCc2c(cnc3[nH]ncc23)C1 (centres unmarked) [1-(3-chloro-2-fluorophenyl)-3-(6,7,8,9-tetrahydro-3H-pyrazolo[3,4-c]isoquinolin-7-yl)urea]	75 to 100	75 to 100	75 to 100	75 to 100	75 to 100
Clc1ccccc1CN1CCN(c2ncc3c(n2)CCc2cnc4[nH]ncc4c2-3)CC1 [9-[4-(2-chlorobenzyl)piperazin-1-yl]-6,7-dihydro-3H-pyrazolo[4′3′:5,6]pyrido[4,3-f]quinazoline]	75 to 100	75 to 100	75 to 100	75 to 100	75 to 100
Cc1cc(NC2CCc3c(cnc4[nH]ncc34)C2)nc(N)n1 (centres unmarked) [6-methyl-N~4~-(6,7,8,9-tetrahydro-3H-pyrazolo[3,4-c]isoquinolin-7-yl)pyrimidine-2,4-diamine]	75 to 100	25 to 49	75 to 100	75 to 100	75 to 100
CC(C)(C)OC(=O)N1CCc2c(cnc3[nH]ncc23)C1 [drawing 579, tert-butyl 3,6,8,9-tetrahydro-7H-pyrazolo[3,4-c][2,7]naphthyridine-7-carboxylate]	75 to 100	75 to 100	75 to 100	75 to 100	75 to 100
CC(C)(C)NC1CCc2c(cnc3[nH]ncc23)C1 (centres unmarked) [N-tert-butyl-6,7,8,9-tetrahydro-3H-pyrazolo[3,4-c]isoquinolin-7-amine]	75 to 100	75 to 100	75 to 100	75 to 100	75 to 100
Fc1ccc(C2Cc3cnc4[nH]ncc4c3-c3ccccc32)cc1 (centres unmarked) [drawing 558, 7-(4-fluorophenyl)-6,7-dihydro-3H-benzo[f]pyrazolo[3,4-c]isoquinoline]	75 to 100	25 to 49	50 to 74	75 to 100	75 to 100
COc1ccc(CN2CCN(C(=O)N3CCc4c(cnc5[nH]ncc45)C3)CC2)cc1 [7-{[4-(4-methoxybenzyl)piperazin-1-yl]carbonyl}-6,7,8,9-tetrahydro-3H-pyrazolo[3,4-c][2,7]naphthyridine]	75 to 100	< 24	75 to 100	75 to 100	75 to 100
c1nc2[nH]ncc2c2c1CCc1nc(NCC3CCCCCC3)ncc1-2 [N-(cycloheptylmethyl)-6,7-dihydro-3H-pyrazolo[4′,3′:5,6]pyrido[4,3-f]quinazolin-9-amine]	75 to 100	75 to 100	75 to 100	75 to 100	75 to 100
Clc1ccccc1C1Cc2cnc3[nH]nc(-c4cnn(C5CCNCC5)c4)c3c2-c2ccccc21 (centres unmarked) [7-(2-chlorophenyl)-1-(1-piperidin-4-yl-1H-pyrazol-4-yl)-6,7-dihydro-3H-benzo[f]pyrazolo[3,4-c]isoquinoline]	75 to 100	75 to 100	75 to 100	75 to 100	75 to 100
CC(C)(C)OC(=O)NCc1cccc(-c2n[nH]c3ncc4c(c23)CCN(C(=O)OC(C)(C)C)C4)c1 [tert-butyl 1-(3-{[(tert-butoxycarbonyl)amino]methyl}phenyl)-3,6,8,9-tetrahydro-7H-pyrazolo[3,4-c][2,7]naphthyridine--7-carboxylate]	75 to 100	50 to 74	75 to 100	75 to 100	75 to 100
O=C(NCCN1CCOCC1)c1cccc(NC(=O)N2CCc3c(cnc4[nH]ncc34)C2)c1 [N-{3-[(2-morpholin-4-ylethyl)carbamoyl]phenyl}-3,6,8,9-tetrahydro-7H-pyrazolo[3,4-c][2,7]napthyridine-7-carboxamide]	75 to 100	75 to 100	75 to 100	75 to 100	75 to 100
Cc1ccc(-c2n[nH]c3ncc4c(c23)CCN(C(=O)Nc2ccccc2)C4)o1 [1-(5-methylfuran-2-yl)-N-phenyl-3,6,8,9-tetrahydro-7H-pyrazolo[3,4-c][2,7]naphthyridine-7-carboxamide]	75 to 100	75 to 100	75 to 100	75 to 100	75 to 100
c1cc2c(s1)CCc1cnc3[nH]ncc3c1-2 [6,7-dihydro-3H-pyrazolo[3,4-c]thieno[3,2-f]isoquinoline]	75 to 100	75 to 100	75 to 100	75 to 100	75 to 100
CCOC(=O)CNC(=O)N1CCc2c(cnc3[nH]ncc23)C1 [ethyl N-(3,6,8,9-tetrahydro-7H-pyrazolo[3,4-c][2,7]naphthyridin-7-ylcarbonyl)glycinate]	75 to 100	75 to 100	75 to 100	75 to 100	75 to 100
